The values that follow come from publication PMC11316031 (EMBO Reports, 2024).

Each structure is given as a SMILES string.

Experiment [1] deals with T1, Arp2 (subunit of the Arp2/3 complex) (Homo sapiens, UniProt P61158+P61160).
T1 construct: gene ACTR2; recombinant human Arp2/3 iso-complex containing Arp3/ArpC1A/C5L; with Arp3 (ACTR3, P61158), within the Arp2/3 complex
Nature of the experiment: TIRF actin branching rate with GST-N-WASP-VCA-activated recombinant Arp2/[…]; also pyrene actin polymerisation. It is filed as biochemical.

Experiment [2] deals with T2, Arp3 (subunit of the Arp2/3 complex) (Homo sapiens, UniProt P61158).
T2 construct: gene ACTR3; recombinant human Arp2/3 iso-complex containing Arp3/ArpC1A/C5L; with Arp2/3 complex (Arp2, ArpC1A, ArpC2, ArpC3, ArpC4, ArpC5L)
Described as above. It counts as biochemical.

Regarding `Cc1[nH]c2ccccc2c1CCNC(=O)c1ccccc1F` [CK-666], in experiment [1], the concentration for half-maximal inhibition (IC50) stood at 19.9 µM.
As for `COc1ccc(N2C(=O)CSC2c2cccc(Br)c2)c(OC)c1` (centres unmarked) [CK-869], the IC50 in experiment [2] amounted to 0.86 µM.
